Source: ChEMBL document CHEMBL1201862, “PubChem BioAssay data set” (2004)
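Each compound was tested at five concentrations against cells in 96-well plates for 48 hours. Abbreviation: GI50, concentration required for 50% inhibition of growth.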 Calls of active or inactive are those of the source. No stated cut-off is given here; in the data, active = GI50 up to about 1.1 µM and inactive = higher.

What was measured:
Assay in all cases: inhibition of tumour cell growth, NCI panel, 48 h
HT-29 = system: HT-29
TK-10 = system: TK-10
NCI-H522 = system: NCI-H522
MOLT-4 = system: MOLT-4
SN12C = system: SN12C
M14 = system: M14
RXF 393 = system: RXF 393
SNB-75 = system: SNB-75
MDA-MB-231 = system: MDA-MB-231
OVCAR-4 = system: OVCAR-4
SK-OV-3 = system: SK-OV-3
PC-3 = system: PC-3
MCF7 = system: MCF7
NCI/ADR-RES = system: NCI/ADR-RES
HCT-15 = system: HCT-15
SK-MEL-28 = system: SK-MEL-28
IGROV-1 = system: IGROV-1
NCI-H460 = system: NCI-H460
OVCAR-3 = system: OVCAR-3
CCRF-CEM = system: CCRF-CEM
SW-620 = system: SW-620
OVCAR-5 = system: OVCAR-5
MDA-N = system: MDA-N
HOP-92 = system: HOP-92
A549 = system: A549
OVCAR-8 = system: OVCAR-8
HL-60 = system: HL-60
SF-295 = system: SF-295
SK-MEL-5 = system: SK-MEL-5
T47D = system: T47D
Malme-3M = system: Malme-3M
KM12 = system: KM12
MDA-MB-435 = system: MDA-MB-435
Hs-578T = system: Hs-578T
NCI-H226 = system: NCI-H226
HCT-116 = system: HCT-116
EKVX = system: EKVX
SNB-19 = system: SNB-19
UACC-257 = system: UACC-257
RPMI-8226 = system: RPMI-8226
LOX IMVI = system: LOX IMVI
UACC-62 = system: UACC-62
NCI-H23 = system: NCI-H23
ACHN = system: ACHN
COLO 205 = system: COLO 205
K562 = system: K562
SK-MEL-2 = system: SK-MEL-2
786-0 = system: 786-0
A498 = system: A498
HOP-62 = system: HOP-62
BT-549 = system: BT-549
SF-539 = system: SF-539
SF-268 = system: SF-268
CAKI-1 = system: CAKI-1
U-251 = system: U-251
DU-145 = system: DU-145
SR = system: SR
UO-31 = system: UO-31

## S=P(C1CCCCC1)(C1CCCCC1)C(c1cccnc1)N1CCCC1 (stereo not drawn)
HT-29
  GI50: 33.8 µM (inactive)
TK-10
  GI50: 18.5 µM (inactive)
NCI-H522
  GI50: 20.6 µM (inactive)
MOLT-4
  GI50: 24 µM (inactive)
SN12C
  GI50: 18.2 µM (inactive)
M14
  GI50: 18.4 µM (inactive)
RXF 393
  GI50: 18.6 µM (inactive)
SNB-75
  GI50: 19.4 µM (inactive)
MDA-MB-231
  GI50: 18.6 µM (inactive)
OVCAR-4
  GI50: 21.5 µM (inactive)
SK-OV-3
  GI50: 81.8 µM (inactive)
PC-3
  GI50: 18.3 µM (inactive)
MCF7
  GI50: > 100 µM (inactive)
NCI/ADR-RES
  GI50: 19 µM (inactive)
HCT-15
  GI50: 35.7 µM
SK-MEL-28
  GI50: > 100 µM (inactive)
IGROV-1
  GI50: 17.9 µM (inactive)
NCI-H460
  GI50: 20.2 µM (inactive)
OVCAR-3
  GI50: 92.5 µM (inactive)
CCRF-CEM
  GI50: 15.8 µM (inactive)
SW-620
  GI50: 36.2 µM (inactive)
OVCAR-5
  GI50: 36.1 µM (inactive)
MDA-N
  GI50: 20.1 µM (inactive)
HOP-92
  GI50: 23.5 µM (inactive)
A549
  GI50: 17.8 µM (inactive)
OVCAR-8
  GI50: 23.8 µM (inactive)
HL-60
  GI50: 18.1 µM (inactive)
SF-295
  GI50: 21.2 µM (inactive)
SK-MEL-5
  GI50: 16.5 µM (inactive)
T47D
  GI50: 31.9 µM (inactive)
Malme-3M
  GI50: 23.2 µM (inactive)
KM12
  GI50: 17.5 µM (inactive)
MDA-MB-435
  GI50: 18.4 µM (inactive)
Hs-578T
  GI50: 35.4 µM (inactive)
NCI-H226
  GI50: 19.4 µM (inactive)
HCT-116
  GI50: 18.5 µM (inactive)
EKVX
  GI50: 19.1 µM (inactive)
SNB-19
  GI50: 83.2 µM (inactive)
UACC-257
  GI50: > 100 µM (inactive)
RPMI-8226
  GI50: 15.5 µM (inactive)
LOX IMVI
  GI50: 7.18 µM (inactive)
UACC-62
  GI50: 22.5 µM (inactive)
NCI-H23
  GI50: 18.7 µM (inactive)
ACHN
  GI50: 20.3 µM (inactive)
COLO 205
  GI50: 18.9 µM (inactive)
K562
  GI50: 21.2 µM (inactive)
SK-MEL-2
  GI50: 20.9 µM (inactive)
786-0
  GI50: 17.6 µM (inactive)
A498
  GI50: 27.7 µM (inactive)
HOP-62
  GI50: 16.3 µM (inactive)
BT-549
  GI50: 18.5 µM (inactive)
SF-539
  GI50: 16.7 µM (inactive)
SF-268
  GI50: 18.5 µM (inactive)
CAKI-1
  GI50: 17.4 µM (inactive)
U-251
  GI50: 20.2 µM (inactive)
DU-145
  GI50: 16.1 µM (inactive)
SR
  GI50: 25.5 µM (inactive)

## O=[N+]([O-])c1ccc(Cl)c(CNc2ncnc3c2ncn3C2CCCCO2)c1 (stereo not drawn)
HT-29
  GI50: 32.4 µM (inactive)
TK-10
  GI50: 31 µM (inactive)
NCI-H522
  GI50: 32.8 µM (inactive)
MOLT-4
  GI50: 26.1 µM (inactive)
SN12C
  GI50: 29.6 µM (inactive)
M14
  GI50: 28.2 µM (inactive)
RXF 393
  GI50: 14.9 µM (inactive)
SNB-75
  GI50: 43.6 µM (inactive)
MDA-MB-231
  GI50: 32.9 µM (inactive)
UO-31
  GI50: 22 µM (inactive)
OVCAR-4
  GI50: 54.1 µM (inactive)
SK-OV-3
  GI50: 36.5 µM (inactive)
PC-3
  GI50: 39.3 µM (inactive)
MCF7
  GI50: 17.1 µM (inactive)
NCI/ADR-RES
  GI50: 25.1 µM (inactive)
HCT-15
  GI50: 33.9 µM
SK-MEL-28
  GI50: 89.5 µM (inactive)
IGROV-1
  GI50: 58.2 µM (inactive)
NCI-H460
  GI50: 15.3 µM (inactive)
OVCAR-3
  GI50: 34.3 µM (inactive)
SW-620
  GI50: 35 µM (inactive)
OVCAR-5
  GI50: > 100 µM (inactive)
MDA-N
  GI50: 12.7 µM (inactive)
HOP-92
  GI50: 42.3 µM (inactive)
A549
  GI50: 41.7 µM (inactive)
OVCAR-8
  GI50: 53.6 µM (inactive)
HL-60
  GI50: 26.8 µM (inactive)
SF-295
  GI50: 52 µM (inactive)
SK-MEL-5
  GI50: 21.7 µM (inactive)
T47D
  GI50: 55.3 µM (inactive)
Malme-3M
  GI50: 64.9 µM (inactive)
KM12
  GI50: 66.7 µM (inactive)
MDA-MB-435
  GI50: 13.9 µM (inactive)
Hs-578T
  GI50: > 100 µM (inactive)
NCI-H226
  GI50: 43.2 µM (inactive)
HCT-116
  GI50: 43.2 µM (inactive)
EKVX
  GI50: 77.1 µM (inactive)
SNB-19
  GI50: 61.1 µM (inactive)
RPMI-8226
  GI50: 38.6 µM (inactive)
LOX IMVI
  GI50: 56.4 µM (inactive)
UACC-62
  GI50: 22.8 µM (inactive)
NCI-H23
  GI50: 31.8 µM (inactive)
ACHN
  GI50: 44.9 µM (inactive)
COLO 205
  GI50: 42.2 µM (inactive)
K562
  GI50: 31.4 µM (inactive)
SK-MEL-2
  GI50: 28.5 µM (inactive)
786-0
  GI50: 63.8 µM (inactive)
A498
  GI50: 12.4 µM (inactive)
HOP-62
  GI50: 48.4 µM (inactive)
BT-549
  GI50: 41.2 µM (inactive)
SF-539
  GI50: 22.8 µM (inactive)
SF-268
  GI50: 97.9 µM (inactive)
CAKI-1
  GI50: > 100 µM (inactive)
U-251
  GI50: 32.5 µM (inactive)
DU-145
  GI50: 29.1 µM (inactive)
SR
  GI50: 18.5 µM (inactive)
